# Key:
# PC-12 cells = assay: Whole-cell patch clamp current response of PC-12 cells to 1 mM acetylcholine (re-sensitization and scanning experiments); assay type: cell-based; settings: decrease of mean whole-cell current
# Source text: (§1) The patch clamp electrode solution contained 100-mM KCl, 2-mM MgCl2, 1-mM CaCl2, 11-mM EGTA, and 10-mM HEPES; pH was adjusted to 7.2 with KOH.
# (§2) In these applications, as discussed above, both the flow rate of the fluids exiting the microchannels and the scan rate of the patch clamped cell are important. […] The width of each channel is 100 μm, the thickness is 50 μm, and the interchannel spacing is 25 μm. The procedure used for fabricating the microchannels and for patch clamping are identical to that described in Example 2 (see above). The patch clamped cell used was a PC-12 cell, which was placed between 10 to 20 micrometers away from the outlets of the microchannels. Channels 1, 3, 5 and 7 were filled with PBS buffer, while channels 2, 4 and 6 were filled with acetylcholine. The flow rate of the fluid streams was 6.8 mm/s.
# GABAA receptors = biological target: T1, GABAA receptors (UniProt P28472+P62813); assay: Whole-cell patch clamp antagonist dose-response, bicuculline loaded together with GABA, microfluidic scanning; assay type: cell-based; settings: for IC50: with 100 μM GABA
# T1 construct: expressed in transfected cells; host or cells: WSS-1 cells
# T1 sequence (P62813 28-455): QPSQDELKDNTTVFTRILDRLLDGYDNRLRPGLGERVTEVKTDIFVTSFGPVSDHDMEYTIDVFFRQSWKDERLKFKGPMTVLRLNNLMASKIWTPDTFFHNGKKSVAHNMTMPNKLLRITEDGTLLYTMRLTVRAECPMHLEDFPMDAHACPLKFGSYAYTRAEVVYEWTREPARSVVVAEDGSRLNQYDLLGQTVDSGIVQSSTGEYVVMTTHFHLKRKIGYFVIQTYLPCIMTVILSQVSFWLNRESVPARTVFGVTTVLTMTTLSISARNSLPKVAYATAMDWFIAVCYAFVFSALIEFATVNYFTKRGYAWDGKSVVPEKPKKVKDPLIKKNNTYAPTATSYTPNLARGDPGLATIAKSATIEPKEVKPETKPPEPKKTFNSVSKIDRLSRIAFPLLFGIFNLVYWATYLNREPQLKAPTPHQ
# T1 sequence (P28472 26-473): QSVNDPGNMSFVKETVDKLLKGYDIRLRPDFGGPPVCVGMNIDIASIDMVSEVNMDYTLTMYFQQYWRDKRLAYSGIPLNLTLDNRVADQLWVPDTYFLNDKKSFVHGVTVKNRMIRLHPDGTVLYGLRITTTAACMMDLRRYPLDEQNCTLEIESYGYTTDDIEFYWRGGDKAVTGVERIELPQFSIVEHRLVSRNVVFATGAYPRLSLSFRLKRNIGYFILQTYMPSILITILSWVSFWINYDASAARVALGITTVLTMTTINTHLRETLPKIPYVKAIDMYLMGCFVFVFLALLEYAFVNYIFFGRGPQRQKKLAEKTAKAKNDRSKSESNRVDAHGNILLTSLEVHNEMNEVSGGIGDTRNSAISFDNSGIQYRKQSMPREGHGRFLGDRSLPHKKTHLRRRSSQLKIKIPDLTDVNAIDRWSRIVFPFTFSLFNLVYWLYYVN
# T1 sequence (P18508 39-466 partner): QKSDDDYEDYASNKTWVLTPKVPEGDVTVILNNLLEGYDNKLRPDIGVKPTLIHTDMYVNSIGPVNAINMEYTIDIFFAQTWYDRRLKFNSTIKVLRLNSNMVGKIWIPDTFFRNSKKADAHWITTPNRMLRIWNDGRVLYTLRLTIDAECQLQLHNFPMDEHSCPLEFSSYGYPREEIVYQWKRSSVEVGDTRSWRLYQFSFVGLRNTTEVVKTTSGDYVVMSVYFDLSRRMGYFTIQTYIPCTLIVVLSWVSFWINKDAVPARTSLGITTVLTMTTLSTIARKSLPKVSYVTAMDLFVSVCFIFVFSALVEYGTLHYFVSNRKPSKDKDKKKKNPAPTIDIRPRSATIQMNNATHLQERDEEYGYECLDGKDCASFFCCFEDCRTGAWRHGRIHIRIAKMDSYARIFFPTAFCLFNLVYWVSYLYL
# Description: Electrophysiology experiments were performed using a commercially available microfluidic device for patch-clamp (Dynaflow 16, Cellectricon AB, Göteborg Sweden). The device has 16 channels of dimensions 50×57 μm (w×h) separated by 22 μm thick walls at the point of exit into the open volume. The volume of the 16 sample reservoirs is 80 μl and the dimensions of the open volume are 30×35 mm. Prior to experiments the device was loaded with different solutions using a micropipette. A 2 mm thick polycarbonate lid was attached over the sample reservoirs using double adhesive tape (3M, Stockholm, Sweden) to create a closed system. The lid was connected to a syringe with PE tubing and a syringe pump (CMA/100, microinjection pump, Carnegie Medicine, Cambridge, UK) was used to compress the air enclosed by the lid to initiate a well defined pressure driven flow in the channels.
# Adherent WSS-1 cells were cultivated in Petri dishes for 4-8 days in (DMEM/F12) medium supplemented with antibiotics and antimycotin (0.2%), fetal calf serum (10%), and L-glutamine. Before the experiments, cells were washed and detached in a HEPES-saline buffer (HBS) containing (in mM): 10 HEPES, 140 NaCl, 5 KCl, 1 CaCl2, 1 MgCl2, and 10 D-glucose (pH 7.4). All chemicals used in the cell cultures were from Sigma-Aldrich (Sigma-Aldrich Sweden AB, Stockholm, Sweden).
# Patch clamp experiments were carried out in the whole-cell configuration (holding potential −60 mV, sampling frequency 5 kHz filter frequency 1 KHz). The cell bath solution (HBS) contained 10-mM HEPES, 140 -mM NaCl, 5-mM KCl, 1-mM CaCl2, 1-mM MgCl2, 10-mM D-glucose (pH 7.4). The patch clamp electrode solution contained 100-mM KCl, 2-mM MgCl2, 1-mM CaCl2, 11-mM EGTA, and 10-mM HEPES; pH was adjusted to 7.2 with KOH. The experiments were performed at room temperature (18-22° C.).
# The competitive antagonist bicuculline was used at the concentrations of 0.01, 0.1, 1, 5, 10, 100 μM. […] As in the experiments with agonist, every second channel was filled with buffer solution for cleansing, and a resting time in buffer of at least three minutes was used before a return scan was made. Dose-response curves were obtained with texp of 100 ms and 3 s. […] FIGS. 34a and b show the results of a patch-clamp experiment. […] These sample channels were interdigitized with buffer channels in every other channel, and the exposure time were set to either 100 ms or 3 s.
# PC-12 cell = system: PC-12 cell
# Source text: as §1, §2
# The channel structure and experimental setup used in Example 3 can be used to carry out dose-response measurements, in which the concentrations of the ligands in each of the ligand streams differ by predetermined amounts. […] In this 7-channel structure, channels 1, 3, 5 and 7 were filled with PBS buffer, whereas channels 2, 4, and 6 were filled with 1 μM, 12 μM, and 200 μM nicotine, respectively. The flow rate used was 3.24 mm/s and the cell-scanning speed was 250 μm/s. The patch-clamped cell was placed between 10 to 20 μm away from the outlet of the microchannel.
smiles,measurement,setting,value
CC(=O)OCC[N+](C)(C)C [acetylcholine],exposure time to the agonist after which de-sensitization of the current response is observed,PC-12 cells,> 5 s
CN1CCc2cc3c(cc2[C@H]1[C@@H]1OC(=O)c2c1ccc1c2OCO1)OCO3 [bicuculline],IC20,GABAA receptors,~1 µM
same,IC50,"GABAA receptors; IC50, ascending order, texp=3 s",8.46 ± 1.4 µM
same,IC50,"GABAA receptors; IC50, ascending order, texp=100 ms",5.17 ± 0.4 µM
same,IC50,"GABAA receptors; IC50, descending order, texp=3 s",1.84 ± 0.4 µM
same,IC50,"GABAA receptors; IC50, descending order, texp=100 ms",3.56 ± 0.9 µM
CN1CCCC1c1cccnc1 (centres unmarked) [nicotine],whole-cell current response,PC-12 cell; 1 μM nicotine,barely discernible
same,whole-cell current peak,PC-12 cell; 12 μM nicotine,detected with good signal-to-noise ratio
